Like-named read-outs stand apart in the source and are kept apart here. Marks after values point to notes of the source that are not given here.
Assays:
[1] = Bidirectional transport (Papp, efflux ratio) of antimalarials through Caco-2 cell monolayers; type: in vitro ADME, human; settings: human; for Papp at 120 min: Caco-2, Caco-2 monolayers
Method: (§1) The initial experiments were conducted in mid-40s passage cells and repeated in early 80s passage Caco-2 cells. […] In order to maintain equivalent transport medium (HBSS/HBSS with inhibitor) level both outside and inside the chambers, 300 μL was used as medium in the apical chambers and 600 μL in the basolateral chambers. […] Drugs were co-incubated with MRCP, BCRP and ATP hydrolysis blockers to determine the involvement of other efflux mechanisms. Prior to the experiment, the transport medium, HBSS or HBSS with P-gp inhibitors were pre-incubated with the cells for 30 minutes. Following incubation, inserts were placed in new well plates and donor chamber is replaced with drug or drug with inhibitor and the receiver chamber with blank HBSS or HBSS with inhibitor. Transport medium was collected from the receiver chamber after stirring at time intervals of 30, 60, 90 and 120 minutes and was replaced with the same volume of fresh HBSS, or HBSS with inhibitor, when P-gp inhibitors were used in the study. At the end of the experiment 100 μL of medium was removed from the donor chamber in addition to medium collected from the receiver chamber during the study. The cells were then washed thoroughly in cold (4°C) PBS and cell membranes attached to the inserts were sonicated for 10 minutes in a sonicating water bath and centrifuged at 10,000 g for 10 minutes. Supernatant was frozen at -80°C until assayed. […] CL.vol=[…].vol = clearance volume (mL), n = time (min), Aa = amount in acceptor compartment at time n (pmols), Cd0 = concentration in donor compartment at time zero (nM), Vd = volume of the donor compartment (mL), Ca = concentration in acceptor compartment at the previous time point (nM), Vs = sample volume of previous time point (mL), Ac = amount of compound associated with the cells (pmol), Nfin = final time point (min). […] The cleared volume was plotted against time and the slope of the regression line was divided by the surface area to obtain the Papp values. […] The method from Davis and colleagues was adopted with slight modifications. Separations were performed using an Apollo C18 (5 μm, 4.6x150mm) column attached to a matched guard column (5 μm, 4.6x5.5 mm). […] The injection volume was 40 μL and column oven was maintained at 35°C. The analytes were detected at 222 nm and the retention time was 5.6 minutes. Assay developed by Pussard and co-workers were used and slight modifications were done to adjust laboratory conditions. Separation was done using a Prevail C18 (3 μm, 4.6x150mm) column attached to a Direct-connect^TM universal column prefilter. The mobile phase consisted of 20 mM (w/v) KH2PO4 in deionized water at pH 3.0 and acetonitrile (82:18) v/v. […] The injection volume was 40 μL and column oven was maintained at 30°C. The analytes were detected at 343 nm with a retention time of 2.4 minutes. […] Separations were performed using an Apollo C18 (5 μm, 4.6x150mm) column attached to matched guard column (5 μm, 4.6x5.5mm). […] The injection volume was 40 μL and column oven was maintained at 30°C. The analytes were detected at 660 nm with a retention time of 3.8 minutes. A 40 μL sample was spiked with 5 μL 0.5 mM artemisinin internal standard. […] The pipettor was adjusted to the maximum volume (100 μL). […] Pre-treated samples were loaded into the tips by gently aspirating and discarding into the same vial. The process was repeated 10 times in order to increase binding efficiency of drugs to the OMIX 96 C4 matrix. […] The LC-MS method described by […] and co-workers were modified to suit the LC-MS-MS conditions. […] Wexford, Ireland) at 40°C. […] Quantitation was performed in multiple reactions monitoring, MRM mode, using DUIS (ESI^+ and APCI^+) ion sources. […] The optimized mass spectra were acquired with an interface voltage of 4.5 kV, a detector voltage of 1.0 kV, a heat block temperature of 500°C and a desolvation temperature of 160°C.

[2] = system: Caco-2 cell monolayers; assay: as above; type: in vitro ADME, human
Method: as §1

[3] = system: P-gp; settings: cited from earlier work
[4] = cited from earlier work
[5] = system: P-gp; settings: 20 μM, 96 hours, Caco-2, western blot vs control
Method: Caco-2 cells were seeded in 6 well plates at 10,000 cells/cm^2 for 21 days. Drugs and drug combinations at 20 μM prepared in cell growth medium were added on to the mature cells and exposed for 96 hours. After drug exposure, cells were washed three times using PBS and cell lysate was prepared in lysis buffer. The protein content was quantified using the 96 well micro-Lowry protein assay and regulation of P-gp was determined using western blotting.
The membrane was blocked using 2% casein in TBS and washed with TBST. The primary antibody; Mdr (G-1) mouse monoclonal IgG2b 200 and mouse anti-β actin were used as the antibody for β-actin, the reference protein. The antibody; HRP linked goat anti mouse IgG was used as the secondary antibody. The washed membrane was incubated in a BioRad clarity chemiluminescent substrate and enhancer was read and semi quantified using the BIORAD Chemidoc MPT imager with Image LabTM software.

[6] = target: T1, P-glycoprotein (P-gp) (Homo sapiens, UniProt P08183); assay: Bidirectional transport of rhodamine123 through Caco-2 monolayers co-incubated with antimalarials (P-gp inhibitory properties); type: in vitro ADME
T1 construct: In-vitro Caco-2 cell monolayers were used here as a model for potential drug absorption related problems and P-gp mediated transport of drugs; endogenous in cells; host or cells: Caco-2 (human colon carcinoma, ATCC)
T1 sequence (P08183 whole entry): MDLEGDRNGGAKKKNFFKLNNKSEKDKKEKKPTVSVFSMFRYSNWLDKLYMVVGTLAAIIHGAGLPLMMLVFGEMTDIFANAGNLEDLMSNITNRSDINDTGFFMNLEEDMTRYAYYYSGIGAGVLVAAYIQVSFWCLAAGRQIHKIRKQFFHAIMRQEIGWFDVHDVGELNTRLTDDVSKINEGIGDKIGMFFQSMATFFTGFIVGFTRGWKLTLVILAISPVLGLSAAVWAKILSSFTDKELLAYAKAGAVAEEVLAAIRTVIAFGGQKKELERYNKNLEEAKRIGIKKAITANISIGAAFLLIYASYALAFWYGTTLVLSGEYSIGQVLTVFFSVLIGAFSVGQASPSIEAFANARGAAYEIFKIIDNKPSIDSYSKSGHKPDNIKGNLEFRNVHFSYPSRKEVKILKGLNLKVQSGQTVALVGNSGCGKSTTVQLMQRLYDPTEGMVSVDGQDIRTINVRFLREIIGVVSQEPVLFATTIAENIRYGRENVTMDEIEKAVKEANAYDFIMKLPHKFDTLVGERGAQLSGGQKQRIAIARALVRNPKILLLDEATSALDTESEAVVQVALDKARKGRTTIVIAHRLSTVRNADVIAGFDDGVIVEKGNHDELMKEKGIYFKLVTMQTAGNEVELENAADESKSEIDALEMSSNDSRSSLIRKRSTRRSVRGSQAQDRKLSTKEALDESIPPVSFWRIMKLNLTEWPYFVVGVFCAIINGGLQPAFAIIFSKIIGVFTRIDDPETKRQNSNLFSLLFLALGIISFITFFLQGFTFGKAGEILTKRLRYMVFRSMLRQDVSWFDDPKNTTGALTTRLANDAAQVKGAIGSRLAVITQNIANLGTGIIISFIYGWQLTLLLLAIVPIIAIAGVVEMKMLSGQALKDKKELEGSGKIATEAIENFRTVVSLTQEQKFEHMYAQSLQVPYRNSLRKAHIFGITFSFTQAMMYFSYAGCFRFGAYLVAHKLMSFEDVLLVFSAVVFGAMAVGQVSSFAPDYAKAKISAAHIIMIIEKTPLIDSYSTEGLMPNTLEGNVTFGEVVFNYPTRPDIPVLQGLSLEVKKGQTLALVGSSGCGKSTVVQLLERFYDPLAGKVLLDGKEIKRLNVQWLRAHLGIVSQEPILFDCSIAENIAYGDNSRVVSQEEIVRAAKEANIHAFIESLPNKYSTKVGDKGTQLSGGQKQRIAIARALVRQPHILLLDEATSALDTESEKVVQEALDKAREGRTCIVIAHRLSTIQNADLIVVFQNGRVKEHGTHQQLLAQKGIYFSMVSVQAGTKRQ
Method: The Caco-2 cells were seeded on 0.6 cm^2 […] Millipore PCF™ filter inserts at the cell density of 65,000 cells/cm^2 as done previously in the lab. Briefly, the cells were grown for 21–24 days to allow full maturation and formation of tight monolayers. The initial experiments were conducted in mid-40s passage cells and repeated in early 80s passage Caco-2 cells. The Trans epithelial electrical resistance (TEER) was measured immediately before and after the experiment using an epithelial voltage/ohm meter and an ENDOHM 12 chamber (World precision instruments, Sarasota, FL). TEER values were measured both before and after the study with readings above 300 Ω.cm^2 considered as acceptable for tight junctions. […] In order to maintain equivalent transport medium (HBSS/HBSS with inhibitor) level both outside and inside the chambers, 300 μL was used as medium in the apical chambers and 600 μL in the basolateral chambers. […] Drugs were co-incubated with MRCP, BCRP and ATP hydrolysis blockers to determine the involvement of other efflux mechanisms. Prior to the experiment, the transport medium, HBSS or HBSS with P-gp inhibitors were pre-incubated with the cells for 30 minutes. Following incubation, inserts were placed in new well plates and donor chamber is replaced with drug or drug with inhibitor and the receiver chamber with blank HBSS or HBSS with inhibitor. Transport medium was collected from the receiver chamber after stirring at time intervals of 30, 60, 90 and 120 minutes and was replaced with the same volume of fresh HBSS, or HBSS with inhibitor, when P-gp inhibitors were used in the study. At the end of the experiment 100 μL of medium was removed from the donor chamber in addition to medium collected from the receiver chamber during the study. The cells were then washed thoroughly in cold (4°C) PBS and cell membranes attached to the inserts were sonicated for 10 minutes in a sonicating water bath and centrifuged at 10,000 g for 10 minutes. Supernatant was frozen at -80°C until assayed. The Papp values of three well plates were determined using methods modified from Artursson’s group as described by Crowe and Lemaire.
CL.vol=Aa/{[Cd0×Vd−[Aa+(Ca×Vs)]−(Ac)×n/nfin]/Vd}
CL.vol = clearance volume (mL), n = time (min), Aa = amount in acceptor compartment at time n (pmols), Cd0 = concentration in donor compartment at time zero (nM), Vd = volume of the donor compartment (mL), Ca = concentration in acceptor compartment at the previous time point (nM), Vs = sample volume of previous time point (mL), Ac = amount of compound associated with the cells (pmol), Nfin = final time point (min). Papp = Apparent permeability (cm/sec) Rate of clearance (mL/min)=CL.vol / n Papp (cm/sec)=Rate of clearance / Surface area (cm^2)
The cleared volume was plotted against time and the slope of the regression line was divided by the surface area to obtain the Papp values. […] Mean Papp for Bas-Ap direction was divided by the Ap-Bas direction to obtain the efflux ratio and values above two were considered as drugs having true efflux transport.

[7] = system: Caco-2 intestinal epithelial cells; parameters: method as in PMID 8773952; settings: earlier report ref 53; cited from earlier work
[8] = summary in abstract, methylene blue depending on the direction of transport, read-out: permeability

Question: For `CCN(CC)Cc1cc(Nc2ccnc3cc(Cl)ccc23)ccc1O` [AQ, amodiaquine], which Papp at 120 min ([1]; drug alone, read-out: Ap-Bas directional Papp, range over concentrations tested) is on record?
Answer: 160 to 220 nm/s

Question: What about the Papp at 120 min [1, 8] of the same molecule?
Answer: ~200 nm/s

Question: And the Papp at 120 min, 10 µM ([1]; Caco-2, Conc (μM) + inhibitor (μM): 10, first-named drug measured, read-out: Papp Ap-Bas)?
Answer: 160 ± 11 nm/s

Question: And the Papp B→A at 120 min, 10 µM ([1]; Caco-2, Conc (μM) + inhibitor (μM): 10, first-named drug measured, read-out: Papp Bas-Ap)?
Answer: 215 ± 9 nm/s

Question: And the Papp at 120 min, 100 µM ([1]; Caco-2, Conc (μM) + inhibitor (μM): 100, first-named drug measured, read-out: Papp Ap-Bas)?
Answer: 225 ± 20 nm/s

Question: And the Papp B→A at 120 min, 100 µM ([1]; Caco-2, Conc (μM) + inhibitor (μM): 100, first-named drug measured, read-out: Papp Bas-Ap)?
Answer: 233 ± 8 nm/s

Question: What about the Net flow direction ([2]; Conc (μM) + inhibitor (μM): 10) of the same molecule?
Answer: Efflux (0.02) ^*

Question: And the Net flow direction ([2]; Conc (μM) + inhibitor (μM): 100)?
Answer: Diffusion (0.74)

Question: And the P-gp inhibitory properties ([3]; at 100 and 1000 μM ref 38)?
Answer: P-gp inhibitory properties

Question: What about the tmax ([4]; oral administration in human ref 46) of the same molecule?
Answer: < 1 h

Question: Which Papp at 120 min ([1]; read-out: permeability across the gastrointestinal epithelium (class)) does the source give for `C[C@H]1[C@H](OC(=O)CCC(=O)O)O[C@@H]2O[C@@]3(C)CC[C@H]4[C@H](C)CC[C@@H]1[C@@]24OO3` [ART, artesunate] here?
Answer: 10 to 250 nm/s

Question: What about the Papp at 120 min [1, 8] of the same molecule?
Answer: ~100 nm/s

Question: And the efflux ratio at 120 min, 50 µM ([1]; Caco-2, Conc (μM) + inhibitor (μM): 50, Bas-Ap divided by Ap-Bas)?
Answer: 1.5

Question: And the Papp at 120 min, 50 µM ([1]; Caco-2, Conc (μM) + inhibitor (μM): 50, first-named drug measured, read-out: Papp Ap-Bas)?
Answer: 102 ± 3 nm/s

Question: And the Papp B→A at 120 min, 50 µM ([1]; Caco-2, Conc (μM) + inhibitor (μM): 50, first-named drug measured, read-out: Papp Bas-Ap)?
Answer: 123 ± 1 nm/s

Question: And the Net flow direction ([2]; Conc (μM) + inhibitor (μM): 50)?
Answer: Efflux (0.002) ^*

Question: What about the Efflux ratio ([2]; Conc (μM) + inhibitor (μM): 50, Bas-Ap divided by Ap-Bas) of the same molecule?
Answer: 1.2

Question: What about the “regulation of P-gp expression” value [5] of the same molecule?
Answer: slight up regulation of P-gp

Question: And the P-gp inhibitory properties ([6]; at 100 μM)?
Answer: did not exhibit P-gp inhibitory properties

Question: What about the P-gp inhibitory properties ([6]; at test concentrations) of the same molecule?
Answer: did not exhibit P-gp inhibitory properties

Question: For `CN(C)c1ccc2nc3ccc(=[N+](C)C)cc-3sc2c1` [MB, methylene blue], which oral bioavailability ([4]; human volunteers, 100 mg ref 51) is on record?
Answer: 10%

Question: Which P-gp transport inhibition ([3]; at 4 μM ref 19) does the source give for `C/C=C/C[C@@H](C)C(=O)[C@H]1C(=O)N[C@@H](C(C)C)C(=O)N(C)CC(=O)N(C)[C@@H](CC(C)C)C(=O)N[C@@H](C(C)C)C(=O)N(C)[C@@H](CC(C)C)C(=O)N[C@@H](C)C(=O)N[C@H](C)C(=O)N(C)[C@@H](CC(C)C)C(=O)N(C)[C@@H](CC(C)C)C(=O)N(C)[C@@H](C(C)C)C(=O)N1C` [PSC-833, PSC 833] here?
Answer: completely eradicate P-gp mediated transport

Question: With `COC(=O)c1ccccc1-c1c2ccc(=N)cc-2oc2cc(N)ccc12` [Rh123, rhodamine123] as the molecule, how does the “Efflux ratio of rh123” value ([6]; 5 μM rh123, 100 μM antimalarial drugs section) read?
Answer: 4.7

Question: What about the efflux ratio at 120 min, 5 µM ([6]; human, Caco-2, probe rhodamine 123, 5 μM rh123, 100 μM antimalarial drugs section) of the same molecule?
Answer: ~5

Question: What about the efflux ratio at 120 min, 5 µM ([6]; human, Caco-2, probe rhodamine 123, 5 μM rh123, 300 μM antimalarial drugs section) of the same molecule?
Answer: 5.7

Question: And the Papp at 120 min, 5 µM ([6]; human, Caco-2, probe rhodamine 123, 5 μM rh123, 300 μM antimalarial drugs section, read-out: Papp of rh123 Ap-Bas)?
Answer: 5 ± 1 nm/s

Question: Which Papp [7] does the source give for `C[C@H]1[C@H](OC(=O)CCC(=O)[O-])O[C@@H]2O[C@@]3(C)CC[C@H]4[C@H](C)CC[C@@H]1[C@@]24OO3.[Na+]` [sodium artesunate] here?
Answer: 40 nm/s

— paper PMC4821601, “The Interactions of P-Glycoprotein with Antimalarial Drugs, Including Substrate Affinity, Inhibition and Regulation” (PLoS ONE, 2016)
